Data published in patent US12077503B2, “Substituted cyclic amides and their use as herbicides” (FMC CORPORATION, priority 2015, dated 2024).

Assays:
Type in all cases: in vivo
[1] = test system: pigweed (Amaranthus retroflexus); test: Test A preemergence; settings: Amaranthus retroflexus, pre-emergence, 240 h, 0 to 100 scale where 0 is no effect and 100 is complete control, read-out: Pigweed plant response rating
[2] = test system: ragweed (common ragweed, Ambrosia elatior); test: Test A preemergence; settings: Ambrosia artemisiifolia, pre-emergence, 240 h, 0 to 100 scale where 0 is no effect and 100 is complete control, read-out: Ragweed plant response rating
Method in brief: (§1)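 Seeded soil received test chemicals as a preemergence directed spray, and seedlings at one to two leaves, 2–10 cm tall, received them postemergence, in a non-phytotoxic, surfactant-containing solvent mixture. Pots were held in a greenhouse for approximately 10 d, then rated for injury from 0, no effect, to 100, complete control.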

[3] = test system: ryegrass, Italian (Italian ryegrass, Lolium multiflorum); test: Test A preemergence; settings: Lolium multiflorum, pre-emergence, 240 h, 0 to 100 scale where 0 is no effect and 100 is complete control, read-out: Ryegrass, Italian plant response rating
Method in brief: as §1

[4] = test system: giant foxtail (Setaria faberii); test: Test A preemergence; settings: Setaria faberi, pre-emergence, 240 h, 0 to 100 scale where 0 is no effect and 100 is complete control, read-out: Foxtail, Giant plant response rating
Method in brief: as §1

Kochia (Kochia scoparia) [5] = test: Test A preemergence; settings: Bassia scoparia, pre-emergence, 240 h, 0 to 100 scale where 0 is no effect and 100 is complete control, read-out: Kochia plant response rating
Method in brief: as §1

[6] = test system: barnyardgrass (Echinochloa crus-galli); test: Test A preemergence; settings: Echinochloa crus-galli, pre-emergence, 240 h, 0 to 100 scale where 0 is no effect and 100 is complete control, read-out: Barnyardgrass plant response rating
Method in brief: as §1

corn (Zea mays) = test: Test A postemergence; settings: Zea mays, post-emergence, 240 h
Method in brief: as §1

[7] = test system: pigweed (Amaranthus retroflexus); test: Test A postemergence; settings: Amaranthus retroflexus, post-emergence, 240 h
Method in brief: as §1

[8] = test system: ragweed (common ragweed, Ambrosia elatior); test: Test A postemergence; settings: Ambrosia artemisiifolia, post-emergence, 240 h
Method in brief: as §1

[9] = test system: ryegrass, Italian (Italian ryegrass, Lolium multiflorum); test: Test A postemergence; settings: Lolium multiflorum, post-emergence, 240 h
Method in brief: as §1

[10] = test system: giant foxtail (Setaria faberii); test: Test A postemergence; settings: Setaria faberi, post-emergence, 240 h
Method in brief: as §1

Kochia (Kochia scoparia) [11] = test: Test A postemergence; settings: Bassia scoparia, post-emergence, 240 h
Method in brief: as §1

[12] = test system: wheat (Triticum aestivum); test: Test A postemergence; settings: Triticum aestivum, post-emergence, 240 h
Method in brief: as §1

[13] = test system: blackgrass (Alopecurus myosuroides); test: Test A postemergence; settings: Alopecurus myosuroides, post-emergence, 240 h
Method in brief: as §1

[14] = test system: barnyardgrass (Echinochloa crus-galli); test: Test A postemergence; settings: Echinochloa crus-galli, post-emergence, 240 h
Method in brief: as §1

[15] = test system: ducksalad (Heteranthera limosa); test: Test B flooded paddy test; settings: Heteranthera limosa, 250 g ai/ha, Flood; 0 to 100 scale where 0 is no effect and 100 is complete control; read-out: Ducksalad plant response rating
Method in brief: (§2)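 Greenhouse paddy pots with 2-leaf stage plants received compound by direct addition to floodwater 3 cm deep, kept at that level. Scored visually at 13–15 d versus controls (0 no effect; 100 complete control).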

[16] = test system: sedge, umbrella (small-flower umbrella sedge, Cyperus difformis); test: Test B flooded paddy test; settings: Cyperus difformis, 250 g ai/ha, Flood; 0 to 100 scale where 0 is no effect and 100 is complete control; read-out: Sedge, Umbrella plant response rating
Method in brief: as §2

rice (Oryra sativa) = test: Test B flooded paddy test; settings: Oryza sativa, 250 g ai/ha, Flood; 0 to 100 scale where 0 is no effect and 100 is complete control; read-out: Rice plant response rating
Method in brief: as §2

[17] = test system: barnyardgrass (Echinochloa crus-galli); test: Test B flooded paddy test; settings: Echinochloa crus-galli, 250 g ai/ha, Flood; 0 to 100 scale where 0 is no effect and 100 is complete control; read-out: Barnyardgrass plant response rating
Method in brief: as §2

[18] = 125 g ai/ha, preemergence, approx. 10 d

**Q.** For `CC(C)Oc1cc([C@H]2CN(C)C(=O)[C@@H]2C(=O)Nc2ccccc2F)ccc1F` [Compound 1074], which pest or weed control at 31 g/ha ([1]; 31 g ai/ha, Preemergence) is on record?
**A.** 0%

**Q.** What about the pest or weed control at 125 g/ha [1, 18] of the same compound?
**A.** 20%

**Q.** And the pest or weed control at 31 g/ha ([2]; 31 g ai/ha, Preemergence)?
**A.** 0%

**Q.** What about the pest or weed control at 125 g/ha [2, 18] of the same compound?
**A.** 10%

**Q.** What about the pest or weed control at 31 g/ha ([3]; 31 g ai/ha, Preemergence) of the same compound?
**A.** 0%

**Q.** What about the pest or weed control at 125 g/ha [3, 18] of the same compound?
**A.** 50%

**Q.** What about the pest or weed control at 31 g/ha ([4]; 31 g ai/ha, Preemergence) of the same compound?
**A.** 100%

**Q.** And the pest or weed control at 125 g/ha [4, 18]?
**A.** 100%

**Q.** And the pest or weed control at 31 g/ha (Kochia (Kochia scoparia) [5]; 31 g ai/ha, Preemergence)?
**A.** 0%

**Q.** What about the pest or weed control at 125 g/ha (Kochia (Kochia scoparia) [5]; [18]) of the same compound?
**A.** 20%

**Q.** And the pest or weed control at 31 g/ha ([6]; 31 g ai/ha, Preemergence)?
**A.** 90%

**Q.** What about the pest or weed control at 125 g/ha [6, 18] of the same compound?
**A.** 100%

**Q.** What about the plant injury at 125 g/ha (corn (Zea mays); 125 g ai/ha, postemergence, visual injury on 0 to 100 scale (0 no effect, 100 complete control), approx. 10 d, read-out: Corn plant response rating) of the same compound?
**A.** 20%

**Q.** What about the Corn plant response rating (crop injury, 0 = no effect, 100 = complete kill) at 31 g/ha (corn (Zea mays); Postemergence, 31 g ai/ha, visual injury after approx. 10 d, 0 to 100 scale, 0 no effect, 100 complete control) of the same compound?
**A.** 0%

**Q.** And the pest or weed control at 125 g/ha ([7]; 125 g ai/ha, postemergence, visual injury on 0 to 100 scale (0 no effect, 100 complete control), approx. 10 d, read-out: Pigweed plant response rating)?
**A.** 0%

**Q.** And the pest or weed control at 31 g/ha ([7]; Postemergence, 31 g ai/ha, visual injury after approx. 10 d, 0 to 100 scale, 0 no effect, 100 complete control, read-out: Plant response rating, Pigweed)?
**A.** 0%

**Q.** And the pest or weed control at 125 g/ha ([8]; 125 g ai/ha, postemergence, visual injury on 0 to 100 scale (0 no effect, 100 complete control), approx. 10 d, read-out: Ragweed plant response rating)?
**A.** 0%

**Q.** And the pest or weed control at 31 g/ha ([8]; Postemergence, 31 g ai/ha, visual injury after approx. 10 d, 0 to 100 scale, 0 no effect, 100 complete control, read-out: Plant response rating, Ragweed)?
**A.** 0%

**Q.** What about the pest or weed control at 125 g/ha ([9]; 125 g ai/ha, postemergence, visual injury on 0 to 100 scale (0 no effect, 100 complete control), approx. 10 d, read-out: Ryegrass, Italian plant response rating) of the same compound?
**A.** 30%

**Q.** And the pest or weed control at 31 g/ha ([9]; Postemergence, 31 g ai/ha, visual injury after approx. 10 d, 0 to 100 scale, 0 no effect, 100 complete control, read-out: Plant response rating, Ryegrass, Italian)?
**A.** 20%

**Q.** And the pest or weed control at 125 g/ha ([10]; 125 g ai/ha, postemergence, visual injury on 0 to 100 scale (0 no effect, 100 complete control), approx. 10 d, read-out: Foxtail, Giant plant response rating)?
**A.** 90%

**Q.** What about the pest or weed control at 31 g/ha ([10]; Postemergence, 31 g ai/ha, visual injury after approx. 10 d, 0 to 100 scale, 0 no effect, 100 complete control, read-out: Plant response rating, Foxtail, Giant) of the same compound?
**A.** 70%

**Q.** What about the pest or weed control at 125 g/ha (Kochia (Kochia scoparia) [11]; 125 g ai/ha, postemergence, visual injury on 0 to 100 scale (0 no effect, 100 complete control), approx. 10 d, read-out: Kochia plant response rating) of the same compound?
**A.** 20%

**Q.** What about the pest or weed control at 31 g/ha (Kochia (Kochia scoparia) [11]; Postemergence, 31 g ai/ha, visual injury after approx. 10 d, 0 to 100 scale, 0 no effect, 100 complete control, read-out: Plant response rating, Kochia) of the same compound?
**A.** 0%

**Q.** What about the plant injury at 125 g/ha ([12]; 125 g ai/ha, postemergence, visual injury on 0 to 100 scale (0 no effect, 100 complete control), approx. 10 d, read-out: Wheat plant response rating) of the same compound?
**A.** 40%

**Q.** What about the plant injury at 31 g/ha ([12]; Postemergence, 31 g ai/ha, visual injury after approx. 10 d, 0 to 100 scale, 0 no effect, 100 complete control, read-out: Plant response rating, Wheat) of the same compound?
**A.** 0%

**Q.** And the pest or weed control at 125 g/ha ([13]; 125 g ai/ha, postemergence, visual injury on 0 to 100 scale (0 no effect, 100 complete control), approx. 10 d, read-out: Blackgrass plant response rating)?
**A.** 50%

**Q.** What about the pest or weed control at 31 g/ha ([13]; Postemergence, 31 g ai/ha, visual injury after approx. 10 d, 0 to 100 scale, 0 no effect, 100 complete control, read-out: Plant response rating, Blackgrass) of the same compound?
**A.** 20%

**Q.** And the pest or weed control at 125 g/ha ([14]; 125 g ai/ha, postemergence, visual injury on 0 to 100 scale (0 no effect, 100 complete control), approx. 10 d, read-out: Barnyardgrass plant response rating)?
**A.** 90%

**Q.** And the pest or weed control at 31 g/ha ([14]; Postemergence, 31 g ai/ha, visual injury after approx. 10 d, 0 to 100 scale, 0 no effect, 100 complete control, read-out: Plant response rating, Barnyardgrass)?
**A.** 80%

**Q.** What about the pest or weed control at 250 g/ha [15] of the same compound?
**A.** 100%

**Q.** And the pest or weed control at 250 g/ha [16]?
**A.** 0%

**Q.** What about the pest or weed control at 250 g/ha (rice (Oryra sativa)) of the same compound?
**A.** 35%

**Q.** What about the pest or weed control at 250 g/ha [17] of the same compound?
**A.** 75%
